Results published in patent US12173088B2, “Anti-microbial peptides” (priority 2018, dated 2024).
Converted amounts (≈) assume the structure as drawn. Peptide text beside a SMILES is read from it.

Tests used:
[1] = tested on: clinical strains of methicillin-resistant and susceptible S. aureus; experiment: microbe, parasite or virus in culture; details: Staphylococcus aureus
S. aureus USA300 = type: in vivo, Staphylococcus aureus
Procedure: Female C57BL/6 mice (6 weeks old) were purchased from Charles River. After environment adaptation, mice were induced neutropenic by administering two doses of cyclophosphamide on day 1 (150 mg/kg) and Day 4 (100 mg/kg). This cyclophosphamide administration was skipped for experiments using non-neutropenic mice (i.e., normal mice). On day 5, mice were infected with S. aureus USA300 LAC (˜2×10^6 CFU per mouse) via intraperitoneal injection (i.p.). For the treatment groups, mice were i.p. treated 2 hours post infection with peptides at a single dose of 5 mg/kg. Both positive and negative controls were included. At the end of the experiments, all animals were sacrificed according to institutional guidelines. Organs, including spleen, lung, kidney, and liver, were harvested, weighed, placed in sterile PBS and stored on ice. Harvested animal organs were subsequently homogenized using homogenizer (Omni, Kennesaw, GA). Proper dilutions, especially for untreated control groups, were made to get countable colonies. Blood agar plates were then incubated overnight at 37° C. The bacteria grown on plates were enumerated and plotted using the Graph pad Prism software.
Female C57BL/6 or Balb/c mice (6 weeks old) were purchased from Charles River. The mice were induced neutropenic by administering two doses of cyclophosphamide on day 1 (150 mg/kg) and Day 4 (100 mg/kg). On day 5, mice were infected with S. aureus USA300 (˜2×10^6 CFU per mouse) or K. pneumoniae E406-17 (˜5×10^5 CFU per mouse) via intraperitoneal injection (i.p.). For the treatment groups, mice were i.p. or intravenous (i.v.) treated 2 hours post infection with peptides at a single dose of 5, 10, or 15 mg/kg. Both positive and negative controls are used. At the end of the experiments, all animals were sacrificed according to institutional guidelines. […] The CFU of each mouse was plotted as an individual point and error bars represent the deviation within the experimental group. * p<0.05 ** p<0.01, ***p<0.001 and NS represents no significance (determined by Mann-Whitney test).

P. aeruginosa PAO1 = type: cell-based, Pseudomonas aeruginosa; details: PAO1
Method in brief: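 Broth microdilution in tryptic soy broth: log-phase cultures (OD600 ≈0.5) diluted to OD600 0.001, given two-fold peptide dilutions, incubated overnight at 37° C. Growth read at 630 nm.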

[2] = tested on: Klebsiella pneumoniae clinical strains; experiment: microbe, parasite or virus in culture; details: clinical strains
Toxicity to cells = type: cell-based; details: human, MRC9 human lung fibroblasts; read-out: LC50 (the source's name)
E. coli ATCC 25922 = type: cell-based, Escherichia coli; details: ATCC 25922
Method in brief: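 Peptides, serially diluted two-fold, were incubated overnight at 37 °C with E. coli ATCC 25922 from log-phase cultures adjusted to OD600 0.001. Turbidity at 630 nm served as the read-out in this broth microdilution format.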

E. coli ampC E416-7 = type: cell-based, Escherichia coli; details: Table 7
Text: The bacterial strains used include the Gram-positive strains Staphylococcus aureus USA300 LAC, S. epidermidis 1457, and Bacillus subtilis 168, as well as the Gram-negative isolates Escherichia coli K12 and Acinetobacter baumannii B2367-12. Additional, drug resistance strains include Gram-positive Enterococcus faecium V286-17 (VRE) and S. aureus M838-17 (MRSA) and Gram-negative E. coli E423-17, E. coli E416-17 (ampC), and P. aeruginosa E411-17. Bacteria were cultivated in tryptic soy broth (TSB) (BD Bioscience, MD).
The antibacterial activity of peptides was evaluated using a standard broth microdilution protocol with minor modifications as described (Mishra, et al. (2012) J. Am. Chem. Soc., 134:12426-12429). In brief, logarithmic phase bacterial cultures (i.e., optical density at 600 nm≈0.5) were diluted to OD600 0.001 and partitioned into a 96-well polystyrene microplate at 90 μL per well. After treatment with 10 μL of peptide solutions two fold diluted to various concentrations, microplates were incubated at 37° C. overnight and read on a ChroMate® 4300 Microplate Reader at 630 nm (GMI, Ramsey, MN). […] To study the influence of medium conditions on the antimicrobial activity of peptides against S. aureus USA300, up to 200 mM sodium chloride (NaCl), 2 mM of calcium chloride, 5-10% of human serum, mouse plasma, fluid, or supernatants of tissue homogenates were included into the assays.

CN[C@H](CC(C)C)C(=O)N[C@H]1C(=O)N[C@@H](CC(N)=O)C(=O)N[C@H]2C(=O)N[C@H]3C(=O)N[C@H](C(=O)N[C@H](C(=O)O)c4cc(O)cc(O)c4-c4cc3ccc4O)[C@H](O)c3ccc(c(Cl)c3)Oc3cc2cc(c3O[C@@H]2O[C@H](CO)[C@@H](O)[C@H](O)[C@H]2O[C@H]2C[C@](C)(N)[C@H](O)[C@H](C)O2)Oc2ccc(cc2Cl)[C@H]1O [Vancomycin]
MIC ([1]; MSSA, strain B243-16 MSSA): 0.5 µM (≈ 0.725 µg/mL) | MIC ([1]; MSSA, strain B254-16 MSSA): 0.5 µM (≈ 0.725 µg/mL) | MIC ([1]; MSSA, strain B255-16 MSSA): 1 µM (≈ 1.45 µg/mL) | MIC ([1]; MSSA, strain B262-16 MSSA): 0.5 µM (≈ 0.725 µg/mL) | MIC ([1]; MSSA, strain B269-16 MSSA): 1 µM (≈ 1.45 µg/mL) | MIC ([1]; NEWMAN, strain Newman): 1 µM (≈ 1.45 µg/mL) | MIC ([1]; USA200, strain USA200): 0.5 µM (≈ 0.725 µg/mL) | MIC ([1]; USA300, strain USA300): 0.5 µM (≈ 0.725 µg/mL) | MIC ([1]; USA400, strain USA400): 1 µM (≈ 1.45 µg/mL) | MIC ([1]; strain M106-16): 1 µM (≈ 1.45 µg/mL) | MIC ([1]; strain M108-16): 1 µM (≈ 1.45 µg/mL) | MIC ([1]; strain M109-16): 0.5 µM (≈ 0.725 µg/mL) | MIC ([1]; strain M111-16): 0.5 µM (≈ 0.725 µg/mL) | MIC ([1]; strain M112-16): 0.5 µM (≈ 0.725 µg/mL) | MIC ([1]; strain M113-16): 1 µM (≈ 1.45 µg/mL) | MIC ([1]; strain M114-16): 1 µM (≈ 1.45 µg/mL) | MIC ([1]; strain M116-16): 0.5 µM (≈ 0.725 µg/mL) | MIC ([1]; strain M117-16): 0.5 µM (≈ 0.725 µg/mL) | MIC ([1]; strain M118-16): 1 µM (≈ 1.45 µg/mL) | MIC ([1]; strain M119-16): 0.5 µM (≈ 0.725 µg/mL) | MIC ([1]; strain M120-16): 0.5 µM (≈ 0.725 µg/mL) | MIC ([1]; strain M121-16): 1 µM (≈ 1.45 µg/mL) | MIC ([1]; strain M122-16): 1 µM (≈ 1.45 µg/mL) | MIC ([1]; strain M123-16): 0.5 µM (≈ 0.725 µg/mL) | MIC ([1]; strain M126-16): 0.5 µM (≈ 0.725 µg/mL) | MIC ([1]; strain M127-16): 0.5 µM (≈ 0.725 µg/mL) | MIC ([1]; strain M128-16): 1 µM (≈ 1.45 µg/mL) | MIC ([1]; strain M129-16): 0.5 µM (≈ 0.725 µg/mL) | MIC ([1]; strain M130-16): 0.5 µM (≈ 0.725 µg/mL) | MIC ([1]; strain UAMS-1): 2 µM (≈ 2.9 µg/mL) | MIC ([1]; strain mu50): 2 µM (≈ 2.9 µg/mL) | CFU decrease (S. aureus USA300; spleen, lung, kidney, liver, 10 mg/kg, positive control): 1-4 logs

CC(C)C[C@H](NC(=O)[C@H](Cc1c[nH]c2ccccc12)NC(=O)[C@H](Cc1c[nH]c2ccccc12)NC(=O)[C@@H](N)Cc1c[nH]c2ccccc12)C(=O)N[C@@H](CCCNC(=N)N)C(=O)N[C@@H](CCCNC(=N)N)C(=O)N[C@@H](CCCNC(=N)N)C(=O)N[C@@H](Cc1c[nH]c2ccccc12)C(N)=O [Horine, WWWLRRRW] (H-WWWLRRRW-NH2; N-terminus and C-terminus assumed)
MIC P. aeruginosa PAO1 (P. aeruginosa PAO1): 12.5 µM (≈ 16.8 µg/mL) | MIC [2]: >64 µM | CC50 (Toxicity to cells): > 35 µM

CC(C)C[C@H](NC(=O)[C@H](CC(C)C)NC(=O)[C@H](CCCCN)NC(=O)[C@H](CC(C)C)NC(=O)CNC(=O)[C@H](CC(C)C)NC(=O)[C@H](CO)NC(=O)[C@H](CC(C)C)NC(=O)[C@H](CC(C)C)NC(=O)[C@H](CC(C)C)NC(=O)[C@H](CCCCN)NC(=O)[C@H](CC(C)C)NC(=O)CN)C(N)=O [DFT561, GLKLLLSLGLKLL] (H-GLKLLLSLGLKLL-NH2; N-terminus and C-terminus assumed)
MIC PA (P. aeruginosa PAO1) (P. aeruginosa PAO1): >25 µM | MIC EC (E. coli ATCC 25922) (E. coli ATCC 25922): >25 µM | MIC E. coli ampC E416-7 (E. coli ampC E416-7): >50 µM | Killing (S. aureus USA300; USA300, in vivo, 5 mg/kg): up to 90%

CC(C)[C@H](NC(=O)[C@H](Cc1c[nH]c2ccccc12)NC(=O)[C@H](Cc1c[nH]c2ccccc12)NC(=O)[C@H](Cc1c[nH]c2ccccc12)NC(=O)[C@H](Cc1c[nH]c2ccccc12)NC(=O)[C@H](CCCNC(=N)N)NC(=O)[C@H](CCCNC(=N)N)NC(=O)[C@@H](N)CCCNC(=N)N)C(N)=O [Verine, RRRWWWWV] (H-RRRWWWWV-NH2; N-terminus and C-terminus assumed)
CC50 (Toxicity to cells): > 25 µM
